Two molecules from publication PMC8512147, “Multifunctional Small Molecules as Potential Anti-Alzheimer’s Disease Agents” (Molecules, 2021) can be followed below.

Structures are written as SMILES.

A short description of series [1]: Protonation constants by pH-potentiometric / UV–Vis spectrophotometric titration. The class given is physicochemical. The conditions noted are these: pH 7.4, CL = 10^−5 M.
Experimental: As concerns the metal chelation studies, potassium hydrogen phthalate (C8H5KO4, p.a.) was acquired from BDH, whereas dimethylsulfoxide (DMSO, dried, p.a.) and potassium chloride (KCl, p.a.) were supplied by Sigma-Aldrich. Aqueous solutions of metal ions were prepared starting from 1000 ppm standards (Titrisol, Sigma-Aldrich), to obtain solutions FeCl3 0.018 M and CuCl2 0.015 M. The metal content of solutions was evaluated by atomic absorption. Iron stock solution was prepared with an excess of acid chloride to avoid hydrolysis and its concentration in HCl was determined by the usual standard-addition method using 0.1M HCl (Titrisol). The 0.1M HCl solution, used in calibration of the glass electrode and in spectrophotometric titrations, was prepared from a Titrisol ampoule. […]
The spectrophotometric measurements were carried out in a 250–450 nm wavelength range at pH ca. 2.5–11.8. Under the stated experimental conditions, the pKw value (14.27) was determined and subsequently used in the computations. […] The metal hydrolysis model was determined under the defined experimental conditions (I = 0.1 M KCl, 20% w/w DMSO/H2O, T = 25.0 ± 0.1 °C) and the following values of stability constants were included in the fitting of experimental data towards the equilibrium models related to the Fe^3+/L and Cu^2+/L systems: log β (FeH-2) = −6.78, log β (FeH-3) = −10.78; log β (Cu2H-2) = −9.94. […]
Series [2] concerns the target T1, Aβ1–42 peptide (Homo sapiens, UniProt P05067). As to the kind of experiment: Inhibition of Cu^2+-induced Aβ1–42 aggregation, Thioflavin T fluorescence assay. The note with it: compounds 80 μM, with copper 40 μM; ThT fluorescence; mean of two independent measurements in duplicate; read-out: Inhibition of Aβ1–42 Aggregation (%) Cu-Induced Aβ Aggr. Further details: Amyloid-β peptide (1–42) was purchased from GeneCust; purchased GeneCust. The class given is biochemical. The method, then:
(§1) The studied compounds (1a–e) were tested in vitro to evaluate their activity as inhibitors of Aβ1-42 peptide aggregation, through the Thioflavin T (ThT) fluorescence assay. This method is based on the strong ability of the dye ThT to bind β-amyloid fibrils and oligomers through ionic and hydrophobic interactions, while its interaction with β-amyloid monomers is extremely weak. The intercalation of compounds in the β-sheet structure of amyloid protein may prevent fibrils aggregation and ThT binding, and it is evaluated by fluorimetry. The fluorescence emission measurements were performed after overnight incubation of the self-mediated or Cu^2+-induced Aβ fibril aggregates with the studied compounds.
(§2) The inhibition of β-amyloid (Aβ) aggregation was studied through the Th-T fluorescence assay, which was performed using a Varian Cary Eclipse fluorimeter at the following wavelengths: excitation (446 nm) and emission (485 nm). Amyloid-β peptide (1–42) was purchased from GeneCust as lyophilized powder stored at −20 °C.
(§3) The method used is based on thioflavin T (ThT) fluorescence emission, which depends on the interaction of this dye with Aβ fibrils. The assay is performed with the Aβ1–42 peptide sample, which was previously prepared by solubilization of its lyophilized powder in 1,1,1,3,3,3–hexafluoro-2-propanol (HFIP), an organic solvent useful to solubilize and monomerize the β-sheets protein aggregates. After 24 h, the solution was divided into Eppendorf tubes kept in ice, and then, HFIP was left to evaporate overnight (T = 25 °C). The resultant films were stored in the freezer. […] Compounds were dissolved in MeOH (1 mg/mL) and diluted with phosphate buffer to reach a ligand stock solution of 480 μM. Two different types of experiments were prepared in a final volume of 60 μL: control ligand assays (Aβ1–42 aggregation in the absence of inhibitor) and ligand assays (effect of ligand on Aβ1–42 aggregation). For each experiment, a blank sample without Aβ1–42 was used to monitor the effect of the compounds in fluorescence. To study the inhibition of aggregation in the presence of Cu^2+, which is known to promote it, an intermediate stock solution of CuCl2 in phosphate buffer (240 µM) was prepared. Then, it was aliquoted to obtain a final concentration of 40 µM in the samples. All samples were incubated in a water bath for 24 h at 37 °C. Then, 180 µL of ThT (5 µM) in glycine-NaOH buffer (50 mM, pH = 8.5) is added to each solution and 200 µL of it is placed in a 96-well plate (BD Falcon) to be read with the fluorimeter. After 5 min of incubation with ThT, fluorescence was measured at 446 nm (ʎ excitation) and 485 nm (ʎ emission).

The target in series [3] is T1, Aβ1–42 peptide. The experiment in a line: Inhibition of self-mediated Aβ1–42 aggregation, Thioflavin T fluorescence assay. The class given is biochemical. Further details: Amyloid-β peptide (1–42) was purchased from GeneCust; purchased GeneCust. The conditions noted are these: compounds 80 μM, without copper; ThT fluorescence; mean of two independent measurements in duplicate; read-out: Inhibition of Aβ1–42 Aggregation (%) Self-Aβ Aggr. As to the method: as §1, §2, §3

T1 sequence (P05067 672-713): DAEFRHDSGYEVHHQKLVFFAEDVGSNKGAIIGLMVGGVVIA

The term inhibition denotes how much of the control response was suppressed. As for `COc1cc(/C=C/C(=O)NOCc2ccccc2OC)ccc1O` [Compound 1a, (E)-3-(4-hydroxy-3-methoxyphenyl)-N-((2-methoxybenzyl)oxy)acrylamide], the “predominant species neutral HL at physiological conditions” value in series [1] came out at 96%. Besides, the figures for the inhibition at 80 µM in series [2] and in series [3] were 79.6% and 42.6%, respectively.
On the same counts, the results for `COc1cc(/C=C/C(=O)NOCc2cccc(Cl)c2)ccc1O` [Compound 1d, (E)-N-((3-chlorobenzyl)oxy)-3-(4-hydroxy-3-methoxyphenyl)acrylamide] are 97%, 76.1% and 34.1%.
